{"source": "patent US6355261B1", "about": "“Ultraviolet radiation absorbing waxes useful in cosmetic compositions” (priority 1999, dated 2002)", "key": {"[1]": {"assay": "Ultraviolet radiation transmittance and SPF of sunscreen lotions, LABSPHERE Ultraviolet Transmittance Analyzer", "protocol": "Sunscreen lotion compositions were made and tested for UV absorbance. A control sample sunscreen lotion was made without a compound of formula (I) and a test sample was made in accordance with the invention, using a compound of formula (I) wherein n is 6 (HDDS). Table 1 summarizes the composition of the control and HDDS sunscreen lotions, by wt. %.\nTo prepare the sunscreen lotions, the A phase ingredients were blended together and heated to 90° C. to dissolve the oxybenzone. Next, the B phase ingredients were added with stirring until homogeneous. In a separate vessel, EDTA was dissolved in water and heated to 85° C. A preblended mixture of preservative, butylene glycol, and glycerin was added to the EDTA/water solution. In a separate vessel, carbomer was dispersed in 50 g water and set aside. With homogenization, the A+B oil phase was added to the C water phase. Next, the pre-dispersed carbomer D phase was added to the A+B+C mixture. While maintaining the temperature at 85° C., the mixture was homogenized for about 10 minutes, and then removed from heat and stirred with a propellor while cooling. When the temperature was below 40° C., the neutralizer E was slowly added and the mixture was stirred until a smooth, homogeneous lotion resulted.\nUltraviolet radiation transmittance and SPF of the control and HDDS samples were measured over the range 290 to 400 nm using a LABSPHERE Ultraviolet Transmittance Analyzer. Five scans were performed on each sample. Critical Wavelength (nm) and SPF data are reported in Table 2 below for the control and HDDS samples.\nThe ordinate represents absorbance, in units log(base 10)*(1/transmittance (%)), and the abscissa represents wavelength in nanometers."}, "[2]": {"assay": "Solubility of HDDS in esters of dibasic acids", "format": "physicochemical"}, "[3]": {"details": "HDDS in a sunscreen lotion versus control lotion"}}, "data": [{"smiles": "O=C(OCCCCCCOC(=O)c1ccccc1O)c1ccccc1O", "note": "[HDDS, hexanediol disalicylate]", "values": [{"measurement": "UV absorbance of the lotion", "setting": "[1]; FIG. 1, average of five scans, versus control sample", "value": "increases UV absorbance of the lotion at every wavelength of radiation measured"}, {"measurement": "SPF value of the lotion", "setting": "[1]; [3]", "value": "boosts the SPF value"}, {"measurement": "transmittance of UVA and UVB radiation", "setting": "[1]; [3]", "value": "reduces the transmittance of UVA and UVB radiation"}, {"measurement": "soluble in diisopropyl adipate", "setting": "[2]; solvent diisopropyl adipate", "value": "at least 5 % by weight"}, {"measurement": "soluble in dilsopropyl sebacate", "setting": "[2]; solvent dilsopropyl sebacate", "value": "at least 5 % by weight"}, {"measurement": "soluble in dioctyl adipate", "setting": "[2]; solvent dioctyl adipate", "value": "at least 5 % by weight"}, {"measurement": "soluble in dioctyl maleate", "setting": "[2]; solvent dioctyl maleate", "value": "at least 5 % by weight"}, {"measurement": "soluble in dioctyl sebacate", "setting": "[2]; solvent dioctyl sebacate", "value": "at least 5 % by weight"}]}]}
